Source: ChEMBL document CHEMBL1201862, “PubChem BioAssay data set” (2004)
Active and inactive are the calls of the source. For most assays here, no stated cut-off is given here; in the data, actives have a measured IC50 and inactives only a lower limit.

How the values were obtained:
Type in all cases: functional
Caspase-3 [1] = target: T1, Caspase-3 (Homo sapiens, UniProt P42574)
T1 sequence (P42574 whole entry): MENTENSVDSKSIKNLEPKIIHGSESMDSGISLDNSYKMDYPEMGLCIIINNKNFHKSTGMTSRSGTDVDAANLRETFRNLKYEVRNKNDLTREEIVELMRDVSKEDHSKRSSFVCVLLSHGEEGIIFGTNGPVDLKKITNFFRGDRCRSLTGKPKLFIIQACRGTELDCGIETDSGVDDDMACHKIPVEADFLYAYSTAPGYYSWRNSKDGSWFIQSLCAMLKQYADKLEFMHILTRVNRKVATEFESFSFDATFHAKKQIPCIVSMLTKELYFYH

[2] = target: T2, Sentrin-specific protease 7 (Homo sapiens, UniProt Q9BQF6);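 further: Luminescence-based dose-response confirmation of ultra-high-throughput screening hits, measuring inhibition of SENP7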
T2 sequence (Q9BQF6 whole entry): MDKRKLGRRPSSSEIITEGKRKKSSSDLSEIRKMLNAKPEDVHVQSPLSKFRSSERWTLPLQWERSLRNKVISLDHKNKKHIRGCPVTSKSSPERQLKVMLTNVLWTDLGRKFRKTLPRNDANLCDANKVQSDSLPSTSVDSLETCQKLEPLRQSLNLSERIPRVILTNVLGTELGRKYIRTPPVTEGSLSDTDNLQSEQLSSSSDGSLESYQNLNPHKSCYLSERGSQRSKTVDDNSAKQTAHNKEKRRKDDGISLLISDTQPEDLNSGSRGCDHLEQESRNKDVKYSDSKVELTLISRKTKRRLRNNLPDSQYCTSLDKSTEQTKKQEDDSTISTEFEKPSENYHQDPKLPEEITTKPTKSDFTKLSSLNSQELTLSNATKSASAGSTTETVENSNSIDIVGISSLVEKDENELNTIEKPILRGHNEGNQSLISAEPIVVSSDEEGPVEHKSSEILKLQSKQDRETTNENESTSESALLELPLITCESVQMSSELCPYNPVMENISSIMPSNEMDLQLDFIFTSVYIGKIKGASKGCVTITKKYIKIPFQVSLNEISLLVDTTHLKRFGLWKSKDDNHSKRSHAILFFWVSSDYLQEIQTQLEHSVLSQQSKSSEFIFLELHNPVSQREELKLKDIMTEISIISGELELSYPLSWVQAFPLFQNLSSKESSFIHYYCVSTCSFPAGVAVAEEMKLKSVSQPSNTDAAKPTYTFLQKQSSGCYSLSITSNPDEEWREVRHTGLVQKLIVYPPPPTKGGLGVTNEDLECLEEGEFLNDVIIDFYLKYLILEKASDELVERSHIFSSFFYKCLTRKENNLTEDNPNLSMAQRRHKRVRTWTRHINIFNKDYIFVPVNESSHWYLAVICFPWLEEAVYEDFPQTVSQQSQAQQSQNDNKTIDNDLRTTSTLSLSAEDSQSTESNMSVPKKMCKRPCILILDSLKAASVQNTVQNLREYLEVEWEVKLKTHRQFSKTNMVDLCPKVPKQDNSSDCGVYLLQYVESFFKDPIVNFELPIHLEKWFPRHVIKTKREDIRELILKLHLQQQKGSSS

[3] = target: T3, Sentrin-specific protease 6 (Homo sapiens, UniProt Q9GZR1);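 further: Luminescence-based dose-response confirmatory assay of SENP6 inhibition, following up an ultra-high-throughput screen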
T3 sequence (Q9GZR1 whole entry): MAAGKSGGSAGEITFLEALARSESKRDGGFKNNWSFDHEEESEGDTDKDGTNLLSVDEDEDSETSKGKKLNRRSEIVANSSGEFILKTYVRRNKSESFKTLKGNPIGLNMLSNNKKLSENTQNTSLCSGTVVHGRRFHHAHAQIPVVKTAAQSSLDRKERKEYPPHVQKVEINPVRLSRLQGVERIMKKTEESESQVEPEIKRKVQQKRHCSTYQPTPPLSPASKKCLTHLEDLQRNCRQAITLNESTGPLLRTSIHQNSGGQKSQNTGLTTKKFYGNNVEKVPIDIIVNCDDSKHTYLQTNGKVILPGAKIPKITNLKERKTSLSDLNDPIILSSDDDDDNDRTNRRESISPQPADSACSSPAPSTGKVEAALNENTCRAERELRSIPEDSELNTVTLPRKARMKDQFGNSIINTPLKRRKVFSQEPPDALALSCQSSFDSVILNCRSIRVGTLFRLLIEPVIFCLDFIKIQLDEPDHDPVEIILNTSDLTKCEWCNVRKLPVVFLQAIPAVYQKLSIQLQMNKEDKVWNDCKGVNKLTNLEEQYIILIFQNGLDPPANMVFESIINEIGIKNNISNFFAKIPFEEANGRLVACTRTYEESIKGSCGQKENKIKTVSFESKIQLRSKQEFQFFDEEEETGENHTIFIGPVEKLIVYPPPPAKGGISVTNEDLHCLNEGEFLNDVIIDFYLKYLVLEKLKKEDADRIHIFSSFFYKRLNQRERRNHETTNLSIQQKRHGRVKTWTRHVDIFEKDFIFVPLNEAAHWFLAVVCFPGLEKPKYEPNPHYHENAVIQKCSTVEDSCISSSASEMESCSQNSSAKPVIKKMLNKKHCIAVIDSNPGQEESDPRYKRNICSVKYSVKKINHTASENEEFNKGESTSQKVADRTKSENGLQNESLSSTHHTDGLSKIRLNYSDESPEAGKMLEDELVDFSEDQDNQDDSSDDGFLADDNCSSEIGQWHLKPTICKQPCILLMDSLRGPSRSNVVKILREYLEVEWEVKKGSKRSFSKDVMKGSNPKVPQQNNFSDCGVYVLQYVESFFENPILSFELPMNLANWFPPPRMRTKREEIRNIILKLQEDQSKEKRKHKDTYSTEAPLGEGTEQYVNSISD

[4] = target: T4, Sentrin-specific protease 8 (Homo sapiens, UniProt Q96LD8);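 further: luminescence read-out of SENP8 inhibition, dose-response confirmation following an ultra-high-throughput screen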
T4 sequence (Q96LD8 whole entry): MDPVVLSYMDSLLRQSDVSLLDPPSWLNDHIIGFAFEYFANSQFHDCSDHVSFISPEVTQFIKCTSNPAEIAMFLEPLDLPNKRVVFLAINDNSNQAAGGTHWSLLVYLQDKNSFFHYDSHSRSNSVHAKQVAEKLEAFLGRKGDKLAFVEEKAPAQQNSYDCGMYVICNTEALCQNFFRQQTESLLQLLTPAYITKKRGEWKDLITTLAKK

Caspase-3 [5] = target: T1, Caspase-3; experiment: SAR Analysis of small molecule inhibitors of Sentrin-specific proteases (SENPs) using a Caspase-3 Selectivity assay. [Related pubchem assays (depositor defined):AID2540, AID2599, AID434973, AID489001]
Insulin receptor = Insulin receptor (Homo sapiens, UniProt P06213);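 further: insulin receptor kinase tested as one member of a kinome-wide kinase panel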
[6] = target: Rho-associated protein kinase 1 (Homo sapiens, UniProt Q13464);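 further: measured within a broad kinome-wide panel profiling many kinases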
[7] = target: Serine/threonine-protein kinase Nek2 (Homo sapiens, UniProt P51955)
[8] = target: Serine/threonine-protein kinase 3 (Homo sapiens, UniProt Q13188);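 further: measured as one member of a kinome-wide kinase panel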
Chain of Serine/threonine-protein kinase 3 (Q13188 whole entry): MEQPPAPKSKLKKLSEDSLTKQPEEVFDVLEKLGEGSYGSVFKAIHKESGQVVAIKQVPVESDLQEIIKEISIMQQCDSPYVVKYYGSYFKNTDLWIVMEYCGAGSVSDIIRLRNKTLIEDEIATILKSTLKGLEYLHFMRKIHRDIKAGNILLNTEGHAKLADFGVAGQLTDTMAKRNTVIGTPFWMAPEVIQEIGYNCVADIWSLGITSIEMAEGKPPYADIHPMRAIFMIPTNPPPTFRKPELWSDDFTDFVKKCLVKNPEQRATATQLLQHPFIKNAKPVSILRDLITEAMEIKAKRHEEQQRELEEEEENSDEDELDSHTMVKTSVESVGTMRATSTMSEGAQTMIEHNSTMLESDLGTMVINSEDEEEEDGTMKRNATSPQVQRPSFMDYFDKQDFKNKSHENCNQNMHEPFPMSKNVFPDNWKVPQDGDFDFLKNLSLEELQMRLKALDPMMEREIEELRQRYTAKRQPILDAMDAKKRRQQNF

Chain of Serine/threonine-protein kinase Nek2 (P51955 whole entry): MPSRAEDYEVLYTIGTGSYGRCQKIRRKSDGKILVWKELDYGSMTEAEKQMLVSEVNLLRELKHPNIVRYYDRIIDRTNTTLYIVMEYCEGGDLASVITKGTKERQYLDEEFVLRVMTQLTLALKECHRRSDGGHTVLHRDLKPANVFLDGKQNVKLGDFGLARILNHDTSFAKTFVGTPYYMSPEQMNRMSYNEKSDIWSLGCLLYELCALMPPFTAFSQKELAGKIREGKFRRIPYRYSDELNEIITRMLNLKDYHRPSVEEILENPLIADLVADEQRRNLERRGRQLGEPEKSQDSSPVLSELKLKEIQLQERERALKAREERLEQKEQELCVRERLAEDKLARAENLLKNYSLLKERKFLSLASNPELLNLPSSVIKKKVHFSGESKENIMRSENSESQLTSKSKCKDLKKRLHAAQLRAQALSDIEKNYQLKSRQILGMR
Chain of Rho-associated protein kinase 1 (Q13464 whole entry): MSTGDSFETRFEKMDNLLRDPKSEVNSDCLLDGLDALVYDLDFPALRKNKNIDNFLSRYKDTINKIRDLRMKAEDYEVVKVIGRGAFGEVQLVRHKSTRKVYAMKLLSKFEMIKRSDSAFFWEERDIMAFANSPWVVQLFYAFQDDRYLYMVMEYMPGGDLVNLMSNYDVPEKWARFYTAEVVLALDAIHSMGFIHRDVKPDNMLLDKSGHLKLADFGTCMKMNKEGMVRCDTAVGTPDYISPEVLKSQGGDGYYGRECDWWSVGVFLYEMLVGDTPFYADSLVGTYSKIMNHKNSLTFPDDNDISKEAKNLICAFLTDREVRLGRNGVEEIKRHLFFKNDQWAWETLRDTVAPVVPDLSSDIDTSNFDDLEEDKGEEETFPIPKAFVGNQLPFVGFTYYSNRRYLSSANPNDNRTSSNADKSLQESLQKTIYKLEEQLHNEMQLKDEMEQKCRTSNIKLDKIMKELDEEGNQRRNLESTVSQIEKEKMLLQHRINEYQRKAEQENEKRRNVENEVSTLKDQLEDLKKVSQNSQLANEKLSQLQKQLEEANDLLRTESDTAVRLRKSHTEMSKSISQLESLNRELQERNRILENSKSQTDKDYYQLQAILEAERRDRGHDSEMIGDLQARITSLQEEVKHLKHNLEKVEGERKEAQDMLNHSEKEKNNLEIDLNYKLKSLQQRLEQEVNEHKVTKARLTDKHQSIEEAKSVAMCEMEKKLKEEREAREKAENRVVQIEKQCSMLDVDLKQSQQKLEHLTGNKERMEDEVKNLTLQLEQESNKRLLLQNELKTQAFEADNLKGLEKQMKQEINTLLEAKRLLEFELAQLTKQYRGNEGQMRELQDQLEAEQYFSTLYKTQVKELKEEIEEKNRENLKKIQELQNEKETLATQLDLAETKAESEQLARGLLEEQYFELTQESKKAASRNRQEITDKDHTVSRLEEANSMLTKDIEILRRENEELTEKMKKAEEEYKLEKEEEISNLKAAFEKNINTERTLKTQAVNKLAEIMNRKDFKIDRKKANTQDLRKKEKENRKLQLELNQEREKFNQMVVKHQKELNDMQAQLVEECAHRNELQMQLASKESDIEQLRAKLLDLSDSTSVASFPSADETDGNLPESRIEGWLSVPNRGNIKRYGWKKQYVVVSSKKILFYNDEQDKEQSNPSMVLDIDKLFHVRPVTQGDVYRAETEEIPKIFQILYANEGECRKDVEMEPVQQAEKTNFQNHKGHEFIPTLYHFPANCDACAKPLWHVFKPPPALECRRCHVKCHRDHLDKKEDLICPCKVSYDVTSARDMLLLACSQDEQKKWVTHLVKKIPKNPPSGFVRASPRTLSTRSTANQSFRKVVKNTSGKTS
Chain of Insulin receptor (P06213 28-758 limits assumed): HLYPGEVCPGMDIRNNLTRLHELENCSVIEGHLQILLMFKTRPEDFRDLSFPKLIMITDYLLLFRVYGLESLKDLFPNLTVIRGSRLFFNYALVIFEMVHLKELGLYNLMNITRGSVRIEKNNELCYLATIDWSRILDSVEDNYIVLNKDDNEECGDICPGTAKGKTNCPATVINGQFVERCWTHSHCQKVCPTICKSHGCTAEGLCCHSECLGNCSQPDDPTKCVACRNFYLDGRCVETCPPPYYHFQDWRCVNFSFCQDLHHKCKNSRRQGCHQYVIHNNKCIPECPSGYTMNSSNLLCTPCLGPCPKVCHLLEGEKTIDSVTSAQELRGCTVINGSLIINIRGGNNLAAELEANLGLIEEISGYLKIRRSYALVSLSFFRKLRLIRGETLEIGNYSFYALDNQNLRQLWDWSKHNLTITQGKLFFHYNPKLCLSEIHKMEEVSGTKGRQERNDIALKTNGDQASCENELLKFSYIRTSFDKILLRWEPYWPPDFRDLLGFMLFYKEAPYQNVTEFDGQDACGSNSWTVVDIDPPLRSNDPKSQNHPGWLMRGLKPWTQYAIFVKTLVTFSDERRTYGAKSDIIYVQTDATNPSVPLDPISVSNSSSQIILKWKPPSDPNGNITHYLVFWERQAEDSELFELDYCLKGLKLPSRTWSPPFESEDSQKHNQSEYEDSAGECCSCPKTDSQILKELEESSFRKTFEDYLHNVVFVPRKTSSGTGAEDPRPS
Chain of Insulin receptor (P06213 763-1382 limits assumed): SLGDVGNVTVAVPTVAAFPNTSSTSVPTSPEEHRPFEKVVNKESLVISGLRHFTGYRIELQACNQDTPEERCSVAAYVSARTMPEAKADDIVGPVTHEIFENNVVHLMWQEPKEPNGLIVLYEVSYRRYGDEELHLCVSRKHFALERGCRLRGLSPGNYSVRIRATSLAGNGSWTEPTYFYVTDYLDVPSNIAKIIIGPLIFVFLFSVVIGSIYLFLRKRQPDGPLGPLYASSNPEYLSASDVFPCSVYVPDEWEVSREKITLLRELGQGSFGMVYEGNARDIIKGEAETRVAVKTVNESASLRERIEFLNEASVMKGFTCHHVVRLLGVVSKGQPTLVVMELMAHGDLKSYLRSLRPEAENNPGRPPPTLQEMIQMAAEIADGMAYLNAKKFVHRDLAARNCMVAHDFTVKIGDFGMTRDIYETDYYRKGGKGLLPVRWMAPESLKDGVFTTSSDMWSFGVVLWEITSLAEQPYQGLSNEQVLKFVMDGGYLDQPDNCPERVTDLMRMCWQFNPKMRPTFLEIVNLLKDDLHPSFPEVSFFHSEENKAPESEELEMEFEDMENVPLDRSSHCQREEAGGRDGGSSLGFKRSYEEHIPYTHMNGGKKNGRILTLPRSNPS

| SMILES | IC50 (Caspase-3 [1]) | IC50 [2] | IC50 [3] | IC50 [4] | IC50 (Caspase-3 [5]) | Ki (Insulin receptor) | Ki [6] | Ki [7] | Ki [8] |
| --- | --- | --- | --- | --- | --- | --- | --- | --- | --- |
| O=C(COC(=O)c1ccc([N+](=O)[O-])s1)Nc1cccc(S(=O)(=O)/N=C2/CCCCCN2)c1 | 10 µM (active) | 7.08 µM (active) | 4.62 µM (active) | 4.92 µM (active) |  |  |  |  |  |
| COc1ccc(C(C[N+](=O)[O-])c2c(C)[nH]n(-c3ccccc3)c2=O)cc1 (stereo not drawn) | > 100 µM (inactive) | 7.15 µM (active) | 7.1 µM (active) | 8.32 µM (active) | 45.5 µM (active) |  |  |  |  |
| Oc1c2ccccc2c2c3c(cccc13)N=N2 [SP-600125] |  |  |  |  |  | 0.501 µM (active) | 2 µM (active) | 6.31 µM (active) | 0.316 µM (active) |
